Reference: patent publication US5364615A (priority 1992, dated 1994)
Where “and” joins values, the source holds several entries; their conditions need not be identical. Equal values may be shown once. Entries after “also recorded” stand apart in the source; their conditions may differ. Read-outs that look alike come from different tables or passages of the source.

Key:
[1] = Serum pentamidine concentrations (Example 3); type: in vivo, human; conditions: aerosol
[2] = cited from earlier work
[3] = human, in vivo
Excerpt: (§1) Chest radiographs and arterial blood gas tensions were obtained as clinically indicated.

[4] = Toxicity during PCP treatment (Example 1)
[5] = test system: Pneumocystis carinii; conditions: cited from earlier work
[6] = test system: Pneumocystis carinii; assay: Treatment of Pneumocystis carinii pneumonia, inhaled vs intravenous pentamidine (Example 1); type: in vivo, human
[7] = test system: Pneumocystis carinii; assay: Prevention of PCP, different dosages and regimens (Example 6); type: in vivo, human
Excerpt: A total of 438 participants were selected on the basis of seropositivity for HIV, and were stratified on the basis of (i) prior PCP (n=250), (ii) Kaposi's sarcoma (n=59), or (iii) ARC (n=129).

[8] = inhaled pentamidine; cited from earlier work
[9] = test system: Pneumocystis carinii; assay: Randomized trial 300 mg twice per month vs 600 mg once per month (Example 7); type: in vivo, human
Excerpt: Five patients who developed PCP within 28 days were not evaluated. One hundred (66%) of the patients were concurrently receiving AZT, and 42 (28%) had experienced one prior episode of PCP.

[10] = test system: Pneumocystis carinii; conditions: human, in vivo
Excerpt: The initial diagnosis of P. carinii pneumonia was based on finding the organism in induced sputum or bronchoalveolar lavage specimens.
Treatment was as described in Example 3.
as §1

[11] = Delivery efficiency, nebulizer retention and lung half-life of aerosolized pentamidine; parameters: species or system human
Excerpt: As indicated above, Pneumocystis carinii infect the alveoli. […] It should also be understood that the amount of pentamidine deposited in the alveoli may be substantially less than the total amount aerosolized since a large portion is exhaled by the patient or is trapped on the interior surfaces of the nebulizer apparatus. […] This is true regardless of the dose size, duration of inhalation, and type of nebulizer used, Respirgard or Ultravent. […] Furthermore, even with minimization of airway deposition, there is a portion which is still deposited in the patient's airways.
The "amount nebulized" or "amount aerosolized" of the drug means the amount that actually leaves the apparatus as an aerosol, i.e., the amount placed into the apparatus less the amount retained in the reservoir and on the inner surfaces of the apparatus at the conclusion of a treatment session. "[…] of pentamidine delivered to the alveoli" refers to the amount of drug that is estimated to actually reach the alveoli.

[12] = Aerosol particle size of pentamidine; type: physicochemical; conditions: for particle size (MMAD): Respirgard II
Excerpt: A compressed oxygen (5-7 L/min at 345 kPa, 50 psi) powered nebulizer produces the aerosol and one-way valves provide for entrainment of room air in patients whose minute ventilation is high, act as a baffle to decrease particle size, and direct expired air to a filter which removes the remaining particles of drug thereby preventing environmental contamination.
Particles were sized with a 7 stage Mercer cascade impactor (Intox Products, Albuquerque, N. Mex.). The gas supply was 6 L/min, the sample stream was not dried, and the impactor flow rates were 0.5 L/min. […] Results from the average of three determinations at each location were expressed as mass median aerodynamic diameter ±geometric standard deviation (MMAD±GSD). Raabe, J Aerosol Sci (1971) Z:289-303.

[13] = literature, cited from earlier work
[14] = intravenous 4 mg/Kg, 18-24 h, per patient, 4 mg/kg
[15] = distal to the nebulizer (point A)

For N=C(N)c1ccc(OCCCCCOc2ccc(C(=N)N)cc2)cc1 [pentamidine, p,p'-(pentamethylenedioxy)dibenzamidine], the serum pentamidine concentration ([1]; 2 patients at end of therapy) is listed as 22 ng/mL and 32 ng/mL, the serum pentamidine concentration ([1]; 12/14 patients) is listed as “less than 10 ng/mL” and the “patients developing severe toxicity requiring discontinuation” value ([2]; TMP-SMX oral/parenteral or pentamidine isethionate parenteral) is listed as “approximately 50%”. The side effects ([2]; parenteral pentamidine) was “elevation of liver enzymes, hematologic disturbances with neutropenia and thrombocytopenia, fever, hypocalcemia, and hallucinations”, the impaired renal function ([2]; patients receiving (parenteral) pentamidine) was “about 25%” and the severe adverse reactions [3] was “No patient developed any severe adverse reactions”. For the same molecule, the glucose ([4]; approximately 165 determinations) was over 3.9 mmol/L, the minor toxicity ([4]; inhalation) was “One inhalation patient (16) experienced minor toxicity (rash)” and the major toxicity ([4]; inhalation, two of ten evaluable (neutropenia; both also received AZT)) was 20%. The minor toxicity ([4]; intravenous, elevated serum creatinine in three, depressed leukocyte count in one) was “occurred in four iv-treated patients”, the leukocyte count ([4]; intravenous, patient 18 after ten days) was 6e+08 L⁻¹ and the major toxicity ([4]; intravenous, two of nine (neutropenia, hepatotoxicity)) was 22%. The “change of therapy due to toxicity” value ([4]; iv-treated patients, two of 19 evaluated as printed) was 11%, the “Pre therapy DLCO” value ([5]; baseline, literature) was 59.0 percent predicted and the “Pre therapy PaO2” value ([5]; baseline, literature) was 69.3 torr. The “Pre therapy Vital Capacity” value ([5]; baseline, literature) was 70 percent predicted, the “Successful Treatment W/ Change, %” value ([5]; literature) was 95% and the “Successful Treatment w/o Change, %” value ([5]; literature) was 40%. The “Post therapy PaO2” value ([5]; post therapy, literature (TMP-DPS: only 8 patients tested)) was 87.2 torr, the “Post therapy DLCO” value ([5]; post therapy, literature) was 62 percent predicted and the “Post therapy Vital Capacity” value ([5]; post therapy, literature) was 80 percent predicted. For the same molecule, the Outcome of therapy ([6]; inhalation 4 mg/Kg, UltraVent, per patient) was “failed; also recorded: success”, the satisfactory response rate ([6]; inhalation therapy, evaluable patients) was 90% and the treatment failures ([6]; inhalation, 4 of 13 patients) was 31%. For the same molecule, the responded satisfactorily ([6]; inhalation, 9 of 13 patients) was 69%, the Time to discharge ([6]; inhalation, all patients in group, based on 9 successful patients) was 15 ± 1 days and the “satisfactory outcome (patients)” value ([6]; inhalation, of ten evaluated patients) was “nine had a satisfactory outcome”. The “died in the hospital” value ([6]; inhalation, one patient) was 7.7%, the Time to discharge ([6]; inhalation, per patient (patient 9 died on day 9)) was 27 days and 17 days and 16 days and 15 days and 14 days and 13 days and the “satisfactory outcome (patients)” value ([6]; intravenous) was “Eight of nine iv-treated patients exhibited a satisfactory outcome”. For the same molecule, the Outcome of therapy ([6]; intravenous 3 mg/Kg, per patient, 3 mg/kg) was “success; also recorded: failed”, the Time to discharge ([6]; intravenous, based on 8 successful patients) was 14 ± 2 days and the responded satisfactorily ([6]; intravenous, eight of nine) was 89%. The relapse ([6]; intravenous, four patients followed five to six months) was “no reported relapses”, the Time to discharge ([6]; intravenous, per patient) was 14 days and 12 days and 18 days and 13 days and 16 days and the mortality rate ([7]; 372 participants) was 1.6%. The relapse rate ([7]; 372 participants, at least one treatment) was 4.6%, the “deaths due to PCP” value ([7]; ARC, group a, 30 mg) was 1 and the “PCP Events” value ([7]; ARC, group a, 30 mg every two weeks) was 2. For the same molecule, the “PCP Events” value ([7]; ARC, group b, 150 mg every two weeks) was 0, the “PCP Events” value ([7]; ARC, group c, 300 mg every four weeks) was 0 and the “PCP Events” value ([7]; Kaposi's, group a, 30 mg every two weeks) was 0. For the same molecule, the “PCP Events” value ([7]; Kaposi's, group b, 150 mg every two weeks) was 1, the “PCP Events” value ([7]; Kaposi's, group c, 300 mg every four weeks) was 0 and the relapse rate ([7]; at least three treatments) was 3.2%. The participants experiencing relapse ([7]; of 372 participants) was 17, the relapse rate ([7]; prior PCP, at least one treatment, historical controls 24.3%) was 5.9% and the relapse rate ([7]; prior PCP, three or more treatments) was 4.2%. The “deaths due to PCP” value ([7]; prior PCP, group a, 30 mg) was 1, the “PCP Events” value ([7]; prior PCP, group a, 30 mg every two weeks) was 6 and the “deaths due to PCP” value ([7]; prior PCP, group b, 150 mg) was 3. For the same molecule, the “PCP Events” value ([7]; prior PCP, group b, 150 mg every two weeks) was 5, the “deaths due to PCP” value ([7]; prior PCP, group c, 300 mg) was 1 and the “PCP Events” value ([7]; prior PCP, group c, 300 mg every four weeks) was 3. For the same molecule, the microscopic airway changes [8] was “no microscopic airway changes have been noted”, the “attack rate of PCP at 6.38 months” value ([9]; 300 mg once per month, previous study) was 18% and the “attack rate of PCP” value ([9]; 300 mg twice per month) was 5.6%. For the same molecule, the “attack rate of PCP” value ([9]; 600 mg once per month) was 8.1%, the “patients who developed PCP” value ([9]; mean duration 10.6 months, 10 patients) was 6.8% and the “attack rate of PCP at 6.38 months” value ([9]; this trial, p<0.01 vs 300 mg once per month) was 3%. The “BAL sediment concentration, aerosol vs intravenous” value (18-24 h) was 10-100 fold, the “mean BAL supernatant (aerosol) vs BAL sediment (intravenous), factor” value (18-24 h) was “more than 2” and the “BAL sediment concentration, Mean ± SEM” value (aerosol 300 mg, 18-24 h) was 705 ± 242 ng/mL. The “BAL supernatant concentration, Mean ± SEM” value (aerosol 300 mg, 18-24 h) was 23.2 ± 7.75 ng/mL, the systemic absorption (after aerosol administration) was “Little or no systemic absorption was detectable” and the “BAL sediment concentration, Mean ± SEM” value (intravenous 4 mg/Kg, 18-24 h) was 9.34 ± 1.74 ng/mL. The “BAL supernatant concentration, Mean ± SEM” value (intravenous 4 mg/Kg, 18-24 h) was 2.64 ± 0.73 ng/mL, the BAL sediment concentration [14] was 12.8 ng/mL and 6.89 ng/mL and 8.35 ng/mL and the BAL supernatant concentration [14] was 1.48 ng/mL and 2.44 ng/mL and 4.0 ng/mL. The “response to standard therapy” value (patients infected with P. carinii, either intravenous pentamidine or TMP-SMX) was “All patients infected with P. carinii responded to standard therapy”, the “clinical response (hypoxia, fever, dyspnea, radiographs)” value [10] was “none of the patients were hypoxic or febrile, all had improvement in dyspnea, and all had current or subsequent chest radiographs indicating roentrographic improvement of infiltrates” and the completion of therapy [10] was “All patients successfully completed therapy”. The “amount delivered to the alveoli” value ([11]; 300 mg placed in nebulizer, estimate) was “about 21 mg”, the absorbed dose ([11]; 600 mg in 6 mL, Respirgard II, 3-4 mL nebulized, estimate) was 45 to 60 mg and the “amount delivered to the alveoli” value ([11]; 600 mg placed in nebulizer, estimate) was “about 42 mg”. For the same molecule, the “dose remaining in the nebulizer after inhalation” value ([11]; Respirgard or UltraVent, regardless of dose) was “approximately one third of the pentamidine dose that is placed into the nebulizer remains in the nebulizer”, the “fraction of total dose delivered to the alveoli” value ([11]; estimate based on Mallinckrodt technical specifications) was “about 7%” and the half-life ([11]; human, lung, inhaled or intranasal, read-out: halflife in the lungs) was 21 to 42 days. For the same molecule, the “efficiency of delivery by inhalation” value ([11]; to alveoli, estimate) was 7-10%, the “particle size (MMAD ± GSD)” value ([12]; Example 3, nebulizer of Example 2, 600 mg in 6 mL) was 1.42±1.88 μm and the “mass of particles larger than 4 μm” value ([12]; at the mouthpiece (point B)) was “less than 5%”. For the same molecule, the “particle size (MMAD)” value ([12]; at the mouthpiece (point B)) was 1.42 μm, the “mass of particles larger than 4 μm” value [12, 15] was “greater than 20%” and the “particle size (MMAD)” value [12, 15] was 2.38 μm. The “pentamidine distal to the exhalation filter” value ([12]; point C) was “No pentamidine was found distal to the exhalation filter”, the “Toxicity Req Change of Therapy, %” value [13] was 55% and the “rate of severe reactions” value ([13]; parenteral pentamidine, TMP-SMX) was 50%.
